Tested on: Plasmodium berghei
Assay: Luciferase/luciferin-expressing antifolate-resistant parasites were used to infect a culture of HepG2 cells that were pre-incubated with compounds. Infected hepatocytes emit light due to the luciferase reaction. Assay results are presented as the percent inhibition of light emission compared to control. […]
Format: functional
Conditions: sporozoite; for IC90: read-out: LUCIFERASE INFECTION ASSAY - IC90
[1] = read-out: LUCIFERASE INFECTION ASSAY - IC50

## Oc1c(C(c2ccccc2Cl)N2CCCC2)ccc2cccnc12 (configuration not stated)
HEPG2TOX_HILL_SLOPE 12.7, HEPG2TOX_R_SQUARED 0.0314, PBLUC_HILL_SLOPE 8.39, PBLUC_R_SQUARED 0.486, read-out: LUCIFERASE INFECTION ASSAY - IC50
  IC50: 3.83 µM
  IC90: 4.97 µM

## Cc1nc2nc(C(F)(F)F)nn2c(C)c1CCC(=O)N1CCCC1c1ccc2c(c1)OCCCO2 (configuration not stated)
PBLUC_HILL_SLOPE 2.87, PBLUC_R_SQUARED 0.605, read-out: LUCIFERASE INFECTION ASSAY - IC50
  IC50: 4.15 µM
  IC90: 8.93 µM

## NS(=O)(=O)c1cc(C(=O)OCC(=O)Nc2ccc(OC(F)F)cc2)ccc1Cl
PBLUC_HILL_SLOPE 2.5, PBLUC_R_SQUARED 0.514, read-out: LUCIFERASE INFECTION ASSAY - IC50
  IC50: 6.64 µM
  IC90: > 10 µM

## C=CCCC(=O)Nc1ccc(Br)cn1
HEPG2TOX_HILL_SLOPE 2.37, HEPG2TOX_R_SQUARED 0.964, PBLUC_HILL_SLOPE 2.08, PBLUC_R_SQUARED 0.0582, read-out: LUCIFERASE INFECTION ASSAY - IC50
  IC50: 5.2 µM
  IC90: > 12.9 µM

## CC(OC(=O)c1ccc2ncsc2c1)C(=O)N1CCCC1 (configuration not stated)
[1]
  IC50: > 10 µM
  IC90: > 10 µM

## COc1ccc(-c2nnc(SCC(=O)c3[nH]c(C)c(C(C)=O)c3C)n2C2CCCCC2C)cc1 (configuration not stated)
[1]
  IC50: > 10 µM
  IC90: > 10 µM

## COc1cc2c(cc1NC(=O)C(C)N1CCN(C/C=C/c3ccccc3)CC1)oc1ccccc12 (configuration not stated)
[1]
  IC50: 9.73 µM
  IC90: > 10 µM

## COC(=O)Cc1[nH]n(-c2nc3ccccc3s2)c(=O)c1C(C)=NCCO
FFLUC_HILL_SLOPE 1.26, FFLUC_R_SQUARED 0.909, HEPG2TOX_HILL_SLOPE 2.15, HEPG2TOX_R_SQUARED 0.817, PBLUC_HILL_SLOPE 1.27, PBLUC_R_SQUARED 0.77, read-out: LUCIFERASE INFECTION ASSAY - IC50
  IC50: 0.646 µM
  IC90: 3.67 µM

## O=C(COc1ccccc1CSc1ccc(Cl)cc1)N/N=C\c1ccc(Cl)cc1
PBLUC_HILL_SLOPE 0.291, PBLUC_R_SQUARED 0.508, read-out: LUCIFERASE INFECTION ASSAY - IC50
  IC50: > 7.41 µM
  IC90: > 7.41 µM

## C=C1c2ccccc2N=C(SC(C)C(=O)Nc2ccccc2)N1C (configuration not stated)
HEPG2TOX_HILL_SLOPE 0.246, HEPG2TOX_R_SQUARED 0.527, PBLUC_HILL_SLOPE 4.19, PBLUC_R_SQUARED 0.571, read-out: LUCIFERASE INFECTION ASSAY - IC50
  IC50: 4.07 µM
  IC90: 6.88 µM

## Cc1cc(SC(C)C(=O)N(Cc2ccccc2)Cc2ccccc2)nc2ccccc12 (configuration not stated)
HEPG2TOX_HILL_SLOPE 0.863, HEPG2TOX_R_SQUARED 0.817, read-out: LUCIFERASE INFECTION ASSAY - IC50
  IC50: > 10 µM
  IC90: > 10 µM

## Nn1c(Cc2ccccc2F)nnc1SCC(=O)NCc1ccc2c(c1)OCO2
[1]
  IC50: > 10 µM
  IC90: > 10 µM

## O=C(/C=C/c1cnn(Cc2ccccc2)c1)N1CCN(Cc2ccc(Cl)cc2)CC1
PBLUC_HILL_SLOPE 126, PBLUC_R_SQUARED 0.0794, read-out: LUCIFERASE INFECTION ASSAY - IC50
  IC50: 6.85 µM
  IC90: 6.97 µM

## O=C(N/N=C1\CCCCc2ccccc21)c1cc2ccccc2cc1O
HEPG2TOX_HILL_SLOPE 7.95, HEPG2TOX_R_SQUARED 0.651, read-out: LUCIFERASE INFECTION ASSAY - IC50
  IC50: > 10 µM
  IC90: > 10 µM

## C[C@]12CC[C@H](O)C[C@H]1CCC1C2[C@H](O)C[C@]2(C)[C@@H](C3=CC(=O)OC3)CC[C@]12O (some centres not stated)
HEPG2TOX_HILL_SLOPE 3.83, HEPG2TOX_R_SQUARED 0.791, PBLUC_HILL_SLOPE 2.47, PBLUC_R_SQUARED 0.389, read-out: LUCIFERASE INFECTION ASSAY - IC50
  IC50: 3.98 µM
  IC90: > 8.45 µM

## Cn1cc(CN2CC=C(c3ccccc3)CC2)c2ccccc21
HEPG2TOX_HILL_SLOPE 7.11, HEPG2TOX_R_SQUARED 0.283, PBLUC_HILL_SLOPE 12.5, PBLUC_R_SQUARED 0.246, read-out: LUCIFERASE INFECTION ASSAY - IC50
  IC50: 9.52 µM
  IC90: > 10 µM

## COc1ccc(CN2C(=O)N(CC(C)C)C3(CCN(Cc4ccc5c(c4)CCO5)CC3)C2=O)cc1
HEPG2TOX_HILL_SLOPE 0.211, HEPG2TOX_R_SQUARED 0.0109, PBLUC_HILL_SLOPE 2.27, PBLUC_R_SQUARED 0.453, read-out: LUCIFERASE INFECTION ASSAY - IC50
  IC50: 3.57 µM
  IC90: > 6.91 µM

## Clc1cc(Cl)cc(NCc2ccc3c(c2)OCO3)c1
[1]
  IC50: > 11.1 µM
  IC90: > 11.1 µM

## Clc1cc2c(c3ncccc13)OCN(Cc1ccco1)C2
FFLUC_HILL_SLOPE 3.15, FFLUC_R_SQUARED 0.751, HEPG2TOX_HILL_SLOPE 1.67, HEPG2TOX_R_SQUARED 0.873, PBLUC_HILL_SLOPE 9.79, PBLUC_R_SQUARED 0.762, read-out: LUCIFERASE INFECTION ASSAY - IC50
  IC50: 1.15 µM
  IC90: 1.44 µM

## Cc1ccc(Cn2nc(C)c3cc(C(=O)N4CCN(c5ncccn5)CC4)sc32)cc1
[1]
  IC50: > 10 µM
  IC90: > 10 µM

## c1coc(-c2c3c(nc4c2oc2ccccc24)CCCCCCCCCC3)c1
FFLUC_HILL_SLOPE 1.77, FFLUC_R_SQUARED 0.636, read-out: LUCIFERASE INFECTION ASSAY - IC50
  IC50: > 10 µM
  IC90: > 10 µM

Reference: ChEMBL document CHEMBL4483862, “Open-source discovery of chemical leads for next-generation chemoprotective antimalarials” (2018)
